Experimental data published in patent publication US20230149603A1, “DRUG-RELEASING POLYMER COMPOSITION AND DEVICE” (Novaflux Inc., priority 2021, published 2023).
Counter-ions that a name gives are not always drawn.

Assays:
[1] = Thermogravimetric analysis of the APIs; format: physicochemical; conditions: ramp heated to 140° C. and held for 10 minutes
Procedure: Thermogravimetric analysis was performed on the APIs used in compositions. Each drug was ramp heated to 140° C. and held at that temperature for 10 minutes. For all compositions, time spent melt-mixing is 8-10 minutes. The decomposition of the API in that time was less than 0.5% for each drug, meaning that the API are stable during processing. For Rifampin, the change in mass was 0.292%; for Minocycline HCl the change in mass was 0.421%; and for minocycline Free Base the change in mass was 0.137%.

E. Coli = conditions: averaged between the high and low of the MIC; cited from earlier work
A. Baumanii = conditions: averaged between the high and low of the MIC; cited from earlier work
S. Aureus = conditions: averaged between the high and low of the MIC; cited from earlier work
[2] = cited from earlier work
S. Epidermidis = conditions: averaged between the high and low of the MIC; cited from earlier work
[3] = Stability (discoloration) of the two forms of minocycline

## CN(C)c1ccc(O)c2c1C[C@H]1C[C@H]3[C@H](N(C)C)C(O)=C(C(N)=O)C(=O)[C@@]3(O)C(O)=C1C2=O [Minocycline HCl]
[1]
  change in mass (decomposition of the API): 0.421%

## CO[C@H]1/C=C/O[C@@]2(C)Oc3c(C)c(O)c4c(O)c(c(/C=N/N5CCN(C)CC5)c(O)c4c3C2=O)NC(=O)/C(C)=C\C=C\[C@H](C)[C@H](O)[C@@H](C)[C@@H](O)[C@@H](C)[C@H](OC(C)=O)[C@@H]1C [Rifampicin]
E. Coli
  MIC: 10 micrograms per ml
A. Baumanii
  MIC: 6 micrograms per ml
S. Aureus
  MIC: 0.0095 micrograms per ml
[2]
  solubility in water: low solubility in water
S. Epidermidis
  MIC: 0.1 micrograms per ml
[1]
  change in mass (decomposition of the API): 0.292%

## CN(C)c1ccc(O)c2c1C[C@H]1C[C@H]3[C@H](N(C)C)C(=O)C(C(N)=O)=C(O)[C@@]3(O)C(=O)C1=C2O [minocycline Free Base]
[3]; dry powder form exposed to air
  discoloration process: not observed at all
[3]; stored in distilled water and formulated in compositions
  stability (discoloration) over time: the drug oxidizes with the passage of time
[1]
  change in mass (decomposition of the API): 0.137%
